Source: US20210127673A1, “HERBICIDES” (SYNGENTA PARTICIPATIONS AG, priority 2016, published 2021)

Columns and labels:
Type in all cases: in vivo
Settings in all cases: 1000 g/ha, evaluated after 13 days
Avena fatua (AVEFA) [1] = assay: Post-emergence herbicidal activity, Avena fatua
Experimental: (§1) Seeds of a variety of test species were sown in standard soil in pots: Triticum aestivium (TRZAW), Avena fatua (AVEFA), Alopecurus myosuroides (ALOMY), Echinochloa crus-galli (ECHCG), Lolium perenne (LOLPE), Zea Mays (ZEAMX), Abutilon theophrasti (ABUTH), Amaranthus retroflexus (AMARE) and Setaria faberi (SETFA). After 8 days cultivation (post-emergence) under controlled conditions in a glasshouse (at 24/16° C., day/night; 14 hours light; 65% humidity), the plants were sprayed with an aqueous spray solution derived from the formulation of the technical active ingredient in acetone/water (50:50) solution containing 0.5% Tween 20 (polyoxyethelyene sorbitan monolaurate, CAS RN 9005-64-5). The test plants were then grown in a glasshouse under controlled conditions (at 24/16° C., day/night; 14 hours light; 65% humidity) and watered twice daily. After 13 days, the test was evaluated (5=total damage to plant; 0=no damage to plant).

Lolium perenne (LOLPE) [2] = assay: Pre-emergence herbicidal activity, Lolium perenne; parameters: key: 5=total damage to plant; 0=no damage to plant
Experimental: (§2) Seeds of a variety of test species were sown in standard soil in pots: Triticum aestivium (TRZAW), Avena fatua (AVEFA), Alopecurus myosuroides (ALOMY), Echinochloa crus-galli (ECHCG), Lolium perenne (LOLPE), Zea Mays (ZEAMX), Abutilon theophrasti (ABUTH), Amaranthus retroflexus (AMARE) and Setaria faberi (SETFA). After cultivation for one day (pre-emergence) under controlled conditions in a glasshouse (at 24/16° C., day/night; 14 hours light; 65% humidity), the plants were sprayed with an aqueous spray solution derived from the formulation of the technical active ingredient in acetone/water (50:50) solution containing 0.5% Tween 20 (polyoxyethelyene sorbitan monolaurate, CAS RN 9005-64-5). The test plants were then grown in a glasshouse under controlled conditions (at 24/16°, day/night; 14 hours light; 65% humidity) and watered twice daily. After 13 days, the test was evaluated (5=total damage to plant; 0=no damage to plant).

Setaria faberi (SETFA) [3] = assay: Post-emergence herbicidal activity, Setaria faberi; parameters: key: 5=total damage to plant; 0=no damage to plant
Experimental: as §1

[4] = system: Triticum aestivium (TRZAW); assay: Pre-emergence herbicidal activity, Triticum aestivium; parameters: key: 5=total damage to plant; 0=no damage to plant
Experimental: as §2

[5] = system: Triticum aestivium (TRZAW); assay: Post-emergence herbicidal activity, Triticum aestivium; parameters: key: 5=total damage to plant; 0=no damage to plant
Experimental: as §1

Avena fatua (AVEFA) [6] = assay: Pre-emergence herbicidal activity, Avena fatua; parameters: key: 5=total damage to plant; 0=no damage to plant
Experimental: as §2

[7] = system: Alopecurus myosuroides (ALOMY); assay: Pre-emergence herbicidal activity, Alopecurus myosuroides; parameters: key: 5=total damage to plant; 0=no damage to plant
Experimental: as §2

[8] = system: Alopecurus myosuroides (ALOMY); assay: Post-emergence herbicidal activity, Alopecurus myosuroides; parameters: key: 5=total damage to plant; 0=no damage to plant
Experimental: as §1

[9] = system: Echinochloa crus-galli (ECHCG); assay: Post-emergence herbicidal activity, Echinochloa crus-galli; parameters: key: 5=total damage to plant; 0=no damage to plant
Experimental: as §1

Setaria faberi (SETFA) [10] = assay: Pre-emergence herbicidal activity, Setaria faberi; parameters: key: 5=total damage to plant; 0=no damage to plant
Experimental: as §2

[11] = system: Echinochloa crus-galli (ECHCG); assay: Pre-emergence herbicidal activity, Echinochloa crus-galli; parameters: key: 5=total damage to plant; 0=no damage to plant
Experimental: as §2

Lolium perenne (LOLPE) [12] = assay: Post-emergence herbicidal activity, Lolium perenne; parameters: key: 5=total damage to plant; 0=no damage to plant
Experimental: as §1

Row | SMILES | Control of AVEFA after post-emergence application (score 0-5) (Avena fatua (AVEFA) [1]) | Control of LOLPE after pre-emergence application (score 0-5) (Lolium perenne (LOLPE) [2]) | Control of SETFA after post-emergence application (score 0-5) (Setaria faberi (SETFA) [3]) | Control of TRAZW after pre-emergence application (score 0-5) [4] | Control of TRAZW after post-emergence application (score 0-5) [5] | Control of AVEFA after pre-emergence application (score 0-5) (Avena fatua (AVEFA) [6]) | Control of ALOMY after pre-emergence application (score 0-5) [7] | Control of ALOMY after post-emergence application (score 0-5) [8] | Control of ECHCG after post-emergence application (score 0-5) [9] | Control of SETFA after pre-emergence application (score 0-5) (Setaria faberi (SETFA) [10]) | Control of ECHCG after pre-emergence application (score 0-5) [11] | Control of LOLPE after post-emergence application (score 0-5) (Lolium perenne (LOLPE) [12])
1 | CN(C(=O)OC(C)(C)C)c1ccc(-c2cc(F)c[n+]([O-])c2)nc1C(F)(F)F [Compound B1, tert-butyl N-[6-(5-fluoro-1-oxido-pyridin-1-ium-3-yl)-2-(trifluoromethyl)-3-pyridyl]-N-methyl-carbamate] | 4 | 1 | 5 | 0 | 0 | 2 | 0 | 1 | 4 | 4 | 2 | 2
2 | CC(C)(C)OC(=O)N(Cc1ccc(F)cc1F)c1ccc(-c2cncc(F)c2)nc1C(F)(F)F [Compound B3] | 2 | 0 | 3 | 0 | 0 | 0 | 0 | 0 | 2 | 0 | 0 | 0
3 | CN(C(=O)OC(C)(C)C)c1ccc(-c2cncc(C#N)c2)nc1C(F)(F)F [Compound B4] | 2 | 0 | 5 | 1 | 2 | 0 | 0 | 1 | 4 | 4 | 1 | 1
4 | CC(C)(C)OC(=O)Nc1ccc(-c2cncc(C(F)F)c2)nc1C(F)(F)F [Compound B5] | 1 | 0 | 4 | 0 | 0 | 0 | 0 | 1 | 3 | 4 | 2 | 1
5 | CC(C)(C)OC(=O)Nc1ccc(-c2cncc(Cl)c2)nc1C(F)(F)F [Compound B6] | 3 | 1 | 5 | 0 | 1 | 2 | 1 | 1 | 4 | 5 | 3 | 4
6 | CC(C)(C)OC(=O)Nc1ccc(-c2cncc(OC(F)(F)F)c2)nc1C(F)(F)F [Compound B36] | 3 | 0 |  | 0 | 0 | 2 | 0 | 0 | 3 | 5 | 3 | 1
7 | CC(C)NC(=O)Nc1ccc(-c2cncc(F)c2)nc1C(F)(F)F [Compound B37, 1-[6-(5-fluoro-3-pyridyl)-2-(trifluoromethyl)-3-pyridyl]-3-isopropyl-urea] | 3 | 1 |  | 0 | 0 | 2 | 0 | 0 | 5 | 5 | 4 | 2
8 | CN(C)C(=O)Nc1ccc(-c2cncc(F)c2)nc1C(F)(F)F [Compound B52] | 3 | 1 | 5 | 0 | 0 | 2 | 0 | 0 | 4 |  | 3 | 3
9 | O=C(Nc1ccc(-c2cncc(F)c2)nc1C(F)(F)F)OC1CCS(=O)(=O)C1 (stereo not shown) [Compound B66] |  | 1 | 5 | 0 | 1 | 2 | 0 | 0 | 4 | 5 | 3 | 
10 | CN(C)C(=O)N(C)c1ccc(-c2cncc(F)c2)nc1C(F)(F)F [Compound B74] |  | 1 | 5 | 1 | 0 | 2 | 1 | 0 | 4 | 5 | 4 | 
11 | COC(=O)c1nc(-c2cncc(F)c2)ccc1NC(=O)OC(C)(C)C [Compound B77] | 1 | 0 | 2 | 0 | 0 | 0 | 0 | 0 | 1 |  | 1 | 1
